# Molecular target: Huntingtin (Homo sapiens, UniProt P42858)
# Assay: Inhibition of Huntingtin protein (unknown origin) incubated for overnight in presence of MW1/MAB2166 monoclonal antibody by ELISA-based MSD electrochemiluminescence assay
# Huntingtin, sequence (P42858 whole entry): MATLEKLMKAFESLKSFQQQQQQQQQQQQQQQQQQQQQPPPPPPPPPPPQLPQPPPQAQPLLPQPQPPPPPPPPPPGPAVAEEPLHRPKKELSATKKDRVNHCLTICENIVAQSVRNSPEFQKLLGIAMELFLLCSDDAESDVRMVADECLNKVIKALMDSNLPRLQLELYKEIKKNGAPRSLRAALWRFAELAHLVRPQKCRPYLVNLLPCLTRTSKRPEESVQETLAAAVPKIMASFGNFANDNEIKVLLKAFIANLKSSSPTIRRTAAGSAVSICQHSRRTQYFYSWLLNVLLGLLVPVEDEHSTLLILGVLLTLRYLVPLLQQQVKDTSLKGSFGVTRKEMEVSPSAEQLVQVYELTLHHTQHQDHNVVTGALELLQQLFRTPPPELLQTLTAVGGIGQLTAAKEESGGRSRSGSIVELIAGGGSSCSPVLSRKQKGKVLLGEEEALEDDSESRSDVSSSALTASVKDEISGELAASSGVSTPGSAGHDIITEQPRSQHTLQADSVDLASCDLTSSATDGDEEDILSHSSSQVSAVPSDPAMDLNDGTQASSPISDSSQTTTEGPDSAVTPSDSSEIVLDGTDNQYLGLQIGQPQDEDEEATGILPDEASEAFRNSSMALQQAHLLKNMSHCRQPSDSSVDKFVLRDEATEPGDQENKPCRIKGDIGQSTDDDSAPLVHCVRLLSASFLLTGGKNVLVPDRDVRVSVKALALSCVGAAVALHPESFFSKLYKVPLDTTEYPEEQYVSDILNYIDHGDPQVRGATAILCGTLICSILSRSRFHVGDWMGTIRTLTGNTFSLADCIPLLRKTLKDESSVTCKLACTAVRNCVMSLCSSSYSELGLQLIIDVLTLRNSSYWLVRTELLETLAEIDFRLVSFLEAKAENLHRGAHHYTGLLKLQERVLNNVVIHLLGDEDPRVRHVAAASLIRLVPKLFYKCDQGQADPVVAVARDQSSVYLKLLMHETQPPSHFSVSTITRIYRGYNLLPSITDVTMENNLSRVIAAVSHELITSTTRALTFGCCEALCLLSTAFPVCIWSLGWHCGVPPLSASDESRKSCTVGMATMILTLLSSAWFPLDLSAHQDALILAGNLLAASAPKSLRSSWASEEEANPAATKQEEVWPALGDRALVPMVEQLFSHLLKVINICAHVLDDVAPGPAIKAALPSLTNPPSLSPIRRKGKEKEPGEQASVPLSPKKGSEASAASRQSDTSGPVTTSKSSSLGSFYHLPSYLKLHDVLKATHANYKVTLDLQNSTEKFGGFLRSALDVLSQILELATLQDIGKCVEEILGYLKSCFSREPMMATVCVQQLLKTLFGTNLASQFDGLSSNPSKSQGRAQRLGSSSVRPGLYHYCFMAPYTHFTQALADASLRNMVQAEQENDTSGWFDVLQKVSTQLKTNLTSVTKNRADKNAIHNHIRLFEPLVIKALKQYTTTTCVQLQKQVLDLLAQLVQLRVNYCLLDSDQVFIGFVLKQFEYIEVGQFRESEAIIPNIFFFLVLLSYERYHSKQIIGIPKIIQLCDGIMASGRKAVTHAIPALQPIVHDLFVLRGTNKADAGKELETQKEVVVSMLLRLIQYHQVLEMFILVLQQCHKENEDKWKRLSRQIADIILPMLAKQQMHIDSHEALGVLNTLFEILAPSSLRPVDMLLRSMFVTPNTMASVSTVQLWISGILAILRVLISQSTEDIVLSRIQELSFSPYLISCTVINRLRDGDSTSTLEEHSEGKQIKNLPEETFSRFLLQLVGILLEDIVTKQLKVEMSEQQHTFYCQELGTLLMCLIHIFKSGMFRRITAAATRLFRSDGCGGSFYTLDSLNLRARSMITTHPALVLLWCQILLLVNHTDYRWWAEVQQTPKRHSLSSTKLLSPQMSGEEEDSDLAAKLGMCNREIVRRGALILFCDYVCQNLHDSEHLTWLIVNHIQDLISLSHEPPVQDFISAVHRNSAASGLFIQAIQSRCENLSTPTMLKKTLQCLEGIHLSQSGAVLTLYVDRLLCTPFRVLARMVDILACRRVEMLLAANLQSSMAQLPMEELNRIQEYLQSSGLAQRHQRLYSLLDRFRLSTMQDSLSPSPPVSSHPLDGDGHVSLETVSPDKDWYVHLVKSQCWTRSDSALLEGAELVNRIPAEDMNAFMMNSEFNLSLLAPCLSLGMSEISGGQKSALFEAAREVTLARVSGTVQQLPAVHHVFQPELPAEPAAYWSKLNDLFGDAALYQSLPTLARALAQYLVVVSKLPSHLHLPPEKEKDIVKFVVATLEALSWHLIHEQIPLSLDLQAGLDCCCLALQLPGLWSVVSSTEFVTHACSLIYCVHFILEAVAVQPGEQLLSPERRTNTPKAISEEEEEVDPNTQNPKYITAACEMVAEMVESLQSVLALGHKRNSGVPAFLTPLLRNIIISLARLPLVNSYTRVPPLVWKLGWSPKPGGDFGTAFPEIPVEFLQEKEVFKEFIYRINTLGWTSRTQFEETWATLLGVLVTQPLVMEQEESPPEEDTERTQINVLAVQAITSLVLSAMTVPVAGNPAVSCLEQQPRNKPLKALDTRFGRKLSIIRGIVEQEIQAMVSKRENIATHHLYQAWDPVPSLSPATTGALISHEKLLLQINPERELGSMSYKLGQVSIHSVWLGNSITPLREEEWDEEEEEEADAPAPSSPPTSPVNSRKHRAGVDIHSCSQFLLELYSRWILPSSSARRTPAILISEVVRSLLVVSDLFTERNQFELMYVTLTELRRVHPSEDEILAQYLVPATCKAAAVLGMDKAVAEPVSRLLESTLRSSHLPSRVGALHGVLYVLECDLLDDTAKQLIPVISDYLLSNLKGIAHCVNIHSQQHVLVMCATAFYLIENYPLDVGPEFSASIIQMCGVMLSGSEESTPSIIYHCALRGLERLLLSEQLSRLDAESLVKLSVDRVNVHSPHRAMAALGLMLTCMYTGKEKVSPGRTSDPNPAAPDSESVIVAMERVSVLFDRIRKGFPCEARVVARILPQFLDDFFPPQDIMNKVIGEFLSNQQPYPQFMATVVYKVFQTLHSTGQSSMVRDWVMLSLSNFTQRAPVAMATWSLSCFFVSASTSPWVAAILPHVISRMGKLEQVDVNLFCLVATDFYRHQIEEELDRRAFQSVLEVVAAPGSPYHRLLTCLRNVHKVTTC
row,SMILES,IC50 [nM]
1,Cn1cc(-c2ccc(-c3cnc(NC4CC(C)(C)NC(C)(C)C4)nn3)c(O)c2)cn1,≤ 100
2,CN(c1cnc(-c2ccc(-c3cn[nH]c3F)cc2O)nn1)C1CC(C)(C)NC(C)(C)C1,≤ 100
3,CN(c1cnc(-c2ccc(-n3nccn3)cc2O)nn1)C1CC(C)(C)NC(C)(C)C1,≤ 100
4,CN(c1ncc(-c2ccc(-c3ncco3)cc2O)nn1)C1CC(C)(C)NC(C)(C)C1,≤ 100
5,CC1(C)CC(Nc2cnc(-c3ccc(-c4cn[nH]c4)cc3O)nn2)C(F)C(C)(C)N1 (stereo unspecified),≤ 100
6,CC(C)(C)NC1CCN(c2ncc(-c3ccc(-c4c[nH]nc4C#N)cc3O)nn2)C1 (stereo unspecified),≤ 100
